Assay results from PubChem BioAssay (NCI).
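Method: 48-hour compound exposure of cells in 96-well plates, five concentrations, linear interpolation of endpoints. GI50 marks 50% less growth. TGI: concentration producing complete growth inhibition.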

Key:
Assay in all cases: DTP human tumour cell line panel, 48 h
[1] = test system: CCRF-CEM leukemia
[2] = test system: KM12 colon
[3] = test system: M14 melanoma
[4] = test system: MCF7 breast
[5] = test system: MOLT-4 leukemia
[6] = test system: PC-3 prostate
[7] = test system: SF-539 CNS
[8] = test system: SK-OV-3 ovarian
[9] = test system: SNB-75 CNS
[10] = test system: TK-10 renal

Compound	GI50 [1] [µM]	TGI [1] [µM]	GI50 [2] [µM]	TGI [2] [µM]	GI50 [3] [µM]	TGI [3] [µM]	GI50 [4] [µM]	TGI [4] [µM]	GI50 [5] [µM]	TGI [5] [µM]	GI50 [6] [µM]	TGI [6] [µM]	GI50 [7] [µM]	TGI [7] [µM]	GI50 [8] [µM]	TGI [8] [µM]	GI50 [9] [µM]	TGI [9] [µM]	GI50 [10] [µM]	TGI [10] [µM]
Cc1nc2cncc(C#Cc3cncc(C(=O)Nc4ccc(CN5CCN(C)CC5)c(C(F)(F)F)c4)c3)c2nc1C	1.12	12.5	0.005	2.98	0.144	0.624	0.841	6.78	0.45	10.4	1.51	12.2	0.207	1.02	0.251	5.62	0.854	3.34	0.727	7
CCN(CC)CCOc1ccc(Nc2ncc3cc(-c4c(Cl)cccc4Cl)c(=O)n(CCOC)c3n2)cc1	1.11	18.1	0.655	7.64	0.233	1.5	1.57	8.4	0.781	5.41	3.49	18.6	0.0557	0.821	0.064	7.35	0.00601	0.0454	0.0785	0.832
OCc1cccc(-c2ccc3ncc(-c4nc(NC5CC5)ncc4F)n3c2)c1	0.249	2.69	0.222	1.21	0.328	1.15	0.308	1.19	0.266		0.314	3.23	0.162	0.454	0.448	7.06	0.199	0.453	0.3	> 100
OCCCCC#Cc1ccccc1C#Cc1ccccc1F	24.6	48.7	18.8	37.7	14.6	29.6	42.1	> 100	21.2	49.8	20	48.2	22	48.4	23.8	58.4	> 100	> 100	20.8	49.7
N#Cc1cccc(C(=O)c2cnn(-c3ccc(F)cc3)c2N)c1	> 25	> 25	> 25	> 25	> 25	> 25	> 25	> 25	> 25	> 25	> 25	> 25	> 25	> 25	> 25	> 25	> 11.5	> 22.4	> 25	> 25
Cc1ccccc1S(=O)(=O)N1[C@H](c2ccc(Cl)cc2)C(C(=O)N[C@@H](Cc2ccccc2)C(N)=O)=C[C@@H]1C(C)(C)C	5.77	26.7	4.49	13.3	6.44	17	2.17	9.67	4.87	31.3	2.39	12.2	6.61	13.4	8.5	21.7	4.85	12	9.43	19.1
Nc1c(C(=O)c2cccc(-c3ccc[n+]([O-])c3)c2)cnn1-c1ccc(F)cc1F	> 25	> 25	> 25	> 25	> 25	> 25	> 25	> 25	> 25	> 25	> 25	> 25	> 25	> 25	> 25	> 25	> 25	> 25	> 25	> 25
CCN(CC)c1ccc(N=C2C=C(C(=O)Nc3ccc(S(C)(=O)=O)cc3)C(=O)c3ccccc32)c(C)c1	> 100	> 100	1.03	> 100	88.5	> 100	> 100	> 100	> 100	> 100	1.05	> 100	1.07	> 100	9.45	> 100	3.08	> 100	> 100	> 100
O=C1c2ccccc2-c2c1c1ccc([N+](=O)[O-])cc1c(=O)n2CCNCCCNCCn1c2c(c3ccc([N+](=O)[O-])cc3c1=O)C(=O)c1ccccc1-2	0.00645	3.97	0.172	11.3	0.888	23.5	0.708	27.1	0.005	18.6	0.547	9.18	0.872	6.04	6.75	22.9	0.445	2.41	1.27	22.1
COc1cc(C(=O)/C=C/c2c(-c3ccc(F)cc3)nc3sc(C)cn23)cc(OC)c1OC	7.19	> 100	3.63	> 100	5.12	> 100	1.81	> 100	1.62	5.13	2.41	> 100	6.23	> 100	6.12	> 100	50.1	> 100	28	> 100
N#Cc1c2ccccc2c2n1-c1ccccc1OC(c1ccccc1)C2=O (stereo not drawn)	2.66	10.9	3.32	10.8	3.89	17.4	3.8	14.6	4.47	19.6	2.77	13.5	4.29	16.8	6.03	48.6	2.23	11.9	4.9	20.7
CCOCC(=O)N[C@H]1CCc2cc(OC)c(OC)c(OC)c2-c2ccc(SC)c(=O)cc21		> 70.2		< 0.0631		> 100		> 51.4		> 62.6		> 25.3		< 0.01		0.398		5.11		> 100
C=C(C)C(=O)OC1CC2(C)OC2CC(OC(C)=O)/C(C)=C/C2OC(=O)C(=C)C21 (stereo not drawn)		0.654		33.7		9.39		12.2		6.69		22.5		8.57		> 91.3		42.3		14.1
CN(C)c1ccc(C(=O)c2ccc(N(C)C)c(N)c2)cc1N	1.93	> 100	0.785	43.4	1.67	9.74	0.686	> 59.9	2.76	> 57.6	5.97	> 100	3.92	26.5	5.57	> 45	1.05	> 23.6	14.5	98.6
COc1ccc(C(O)c2cc3c(N)c(C(=O)Nc4cccc(Cl)c4C)sc3nc2C)cc1 (stereo not drawn)	0.733	1.93	0.865	1.68	0.872	1.78	0.569	1.24	0.846	2.13	0.768	1.63	0.818	1.54	0.988	2.09	0.637	1.34	0.871	1.8
CN(C)C(=S)NN=C(c1ccccn1)c1ccccn1		> 65.2	0.046	21.6	< 0.0147	0.349	< 0.01	> 47.4	< 0.01	2.15	< 0.0123	> 43.8	0.0425	4.64	0.0487	16.7	14.3	> 81.6	0.183	16.5
CNc1nc(C)c(-c2nc(Nc3cccc(S(N)(=O)=O)c3)ncc2F)s1	0.0358	> 40.9	0.0368	4.43	0.0305	1.58	0.0255	4.64	0.0309	0.185	0.0388	1.27	0.0233	0.0664	0.0925	12.4	0.044	0.147	0.0644	1.17
O=C(Nc1ccc(Cl)cc1)c1cc2c(cc1O)[nH]c1ccccc12	4.37	> 100	2.89	7.27	2.85	10.4	2.56	10	4.18	47.4	3.96	22.8	2.34	6.04	2.32	6.51	3.23	8.78	2.54	6.56
NS(=O)(=O)c1ccc(C2C3=C(CCCC3=O)OC3=C2C(=O)c2ccccc2C3=O)cc1 (stereo not drawn)	0.383	2.09	1.22	3.27	0.455	1.68	0.221	0.752	0.293	0.848	0.371	1.33	0.277	0.761	1.99	3.76	0.259	1.17	1.78	3.17
